What was measured:
[1] = Sensory evaluation of cooling agent-containing fondants (location, intensity, onset speed of cooling sensation); assay type: in vivo; details: for Long-lasting mouth cooling / Long-lasting throat cooling / Predominant mouth cooling / Predominant throat cooling: in fondant at 0.03, 0.06 and 0.09 weight percent, approx. 0.5 gram dissolved in the mouth, six evaluators
Protocol: The cooling agents N-ethyl-2,2-diisopropylbutanamide and N,2,3-trimethyl-2-isopropylbutanamide were evaluated in fondant at concentrations of 0.03, 0.06, and 0.09 weight percent. The fondant base consisted of 85 weight percent 6X fondant sugar and 15 weight percent deionized water.
Sensory evaluations of the cooling agent-containing fondants were conducted by six evaluators, who observed the location, intensity, and onset speed of cooling sensation as they tasted approximately 0.5 gram of fondant by allowing it to dissolve in the mouth.

[2] = Inventors' observations on bitterness and throat versus mouth cooling; details: in vivo
Excerpt: The present inventors have observed that N-ethyl-2,2-diisopropylbutanamide is a particularly effective for throat soothing. […] The structures of N-ethyl-2,2-diisopropylbutanamide and N,2,3-trimethyl-2-isopropylbutanamide, which differ only by two methylene (—CH2—) groups, are shown below.

[3] = menthol-containing lozenge; cited from earlier work

Row | SMILES | Long-lasting mouth cooling [1] | Long-lasting throat cooling [1] | Predominant mouth cooling [1] | Predominant throat cooling [1] | Location of cooling effect (throat versus mouth) [2] | Throat cooling relative to N,2,3-trimethyl-2-isopropylbutanamide ([1]; when used in a candy system) | Location of physiological cooling effect (throat versus mouth) [3]
1 | CNC(=O)C(C)(C(C)C)C(C)C [Example 2, N,2,3-trimethyl-2-isopropylbutanamide] | No | No | Yes | No | primarily in the mouth rather than the throat | – | –
2 | CCNC(=O)C(CC)(C(C)C)C(C)C [Example 1, N-ethyl-2,2-diisopropylbutanamide] | No | Yes | No | Yes | selectivity for throat cooling over mouth cooling | superior and unexpected throat cooling | –
3 | CC1CCC(C(C)C)C(O)C1 (stereo not drawn) [menthol] | – | – | – | – | – | – | felt primarily in the mouth rather than the throat

Reference: patent US20130330396A1, “METHODS FOR THE TREATMENT OF THROAT DISCOMFORT” (INTERCONTINENTAL GREAT BRANDS LLC, priority 2009, published 2013)
